For this experiment, the target named is ATP-binding cassette sub-family C member 2 (Homo sapiens, UniProt Q92887). Nature of the experiment: TP_TRANSPORTER: inhibition of ATPase activity in Sf9 cells (membrane vesicles).

By IC50 is commonly meant the concentration needed to halve the response being measured. A low value points to inhibition by little substance.

ATP-binding cassette sub-family C member 2, sequence (Q92887 whole entry): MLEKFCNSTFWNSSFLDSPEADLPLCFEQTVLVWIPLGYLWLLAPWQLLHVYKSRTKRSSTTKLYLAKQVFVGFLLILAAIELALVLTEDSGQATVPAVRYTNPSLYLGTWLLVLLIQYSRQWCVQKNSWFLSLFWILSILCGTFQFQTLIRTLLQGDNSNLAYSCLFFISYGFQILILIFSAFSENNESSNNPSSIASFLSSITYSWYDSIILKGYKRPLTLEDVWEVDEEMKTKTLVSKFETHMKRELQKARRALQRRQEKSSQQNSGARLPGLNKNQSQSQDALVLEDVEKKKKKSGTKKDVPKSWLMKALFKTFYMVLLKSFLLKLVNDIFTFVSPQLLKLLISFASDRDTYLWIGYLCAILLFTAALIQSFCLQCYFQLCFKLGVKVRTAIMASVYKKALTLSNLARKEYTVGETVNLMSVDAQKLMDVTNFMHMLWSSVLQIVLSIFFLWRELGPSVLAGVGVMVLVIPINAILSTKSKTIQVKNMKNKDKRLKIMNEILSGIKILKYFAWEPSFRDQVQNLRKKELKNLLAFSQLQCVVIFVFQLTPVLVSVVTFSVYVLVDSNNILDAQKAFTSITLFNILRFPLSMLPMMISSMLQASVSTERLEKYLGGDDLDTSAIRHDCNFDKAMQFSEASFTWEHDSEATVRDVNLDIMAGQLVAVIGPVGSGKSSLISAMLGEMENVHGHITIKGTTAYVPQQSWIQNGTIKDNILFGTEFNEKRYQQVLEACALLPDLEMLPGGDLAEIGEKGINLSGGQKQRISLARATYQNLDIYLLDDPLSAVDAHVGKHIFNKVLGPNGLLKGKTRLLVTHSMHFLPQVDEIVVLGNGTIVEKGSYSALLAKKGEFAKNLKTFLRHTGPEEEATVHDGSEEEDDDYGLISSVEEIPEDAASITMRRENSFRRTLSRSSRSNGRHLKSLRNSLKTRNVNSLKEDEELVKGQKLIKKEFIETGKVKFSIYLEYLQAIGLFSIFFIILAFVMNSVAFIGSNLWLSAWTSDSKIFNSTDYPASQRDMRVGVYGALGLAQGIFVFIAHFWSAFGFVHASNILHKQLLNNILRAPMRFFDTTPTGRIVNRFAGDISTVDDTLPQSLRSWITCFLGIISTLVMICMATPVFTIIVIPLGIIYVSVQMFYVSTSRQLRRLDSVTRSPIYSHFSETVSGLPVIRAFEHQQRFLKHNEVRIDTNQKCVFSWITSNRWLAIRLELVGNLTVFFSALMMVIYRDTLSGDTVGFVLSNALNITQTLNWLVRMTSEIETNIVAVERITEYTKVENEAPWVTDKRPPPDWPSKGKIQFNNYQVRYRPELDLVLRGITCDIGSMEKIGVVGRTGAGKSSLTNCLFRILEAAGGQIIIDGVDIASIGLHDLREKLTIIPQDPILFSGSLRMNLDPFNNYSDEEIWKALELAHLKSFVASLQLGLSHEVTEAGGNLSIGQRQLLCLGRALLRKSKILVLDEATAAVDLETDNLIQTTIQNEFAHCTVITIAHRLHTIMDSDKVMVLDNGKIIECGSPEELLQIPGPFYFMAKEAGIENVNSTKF

`CC[C@H](C)[C@H]1O[C@]2(CC[C@@H]1C)C[C@@H]1C[C@@H](C/C=C(\C)[C@@H](O[C@H]3C[C@H](OC)[C@@H](O[C@H]4C[C@H](OC)[C@@H](O)[C@H](C)O4)[C@H](C)O3)[C@@H](C)/C=C/C=C3\CO[C@@H]4[C@H](O)C(C)=C[C@@H](C(=O)O1)[C@]34O)O2` [ABAMECTIN] gave an IC50 of 18 µM.

The values above are taken from BindingDB's records for doi:10.1016/j.cbi.2005.11.002 (Laboratoire De Pharmacologie-Toxicologie Inra, 2006).
